Values quoted from earlier work, collected in US11058615B1, “Cosmetic dermal serum with skin rejuvenation properties” (Key Element LLC, priority 2018, dated 2021).

Key:
skin blemishes = conditions: recent clinical studies (ncbi.nlm.nih.gov/pubmed/18492184)
hyperpigmentation = hyperpigmentation caused by exposure to UVA and UVB

## O=C1O[C@H]([C@@H](O)CO)C([O-])=C1OP(=O)([O-])[O-].[Na+].[Na+].[Na+] [SAP, Sodium Ascorbyl Phosphate]
Skin blemishes
  efficacy to fight skin blemishes: significant efficacy
hyperpigmentation
  efficacy in helping to normalize skin tone: excellent efficacy
